The text below walks through data of PubChem BioAssay AID1033 (Sanford-Burnham Center for Chemical Genomics, 2008).

For this assay, the target named is Chaperone protein DnaK (Escherichia coli (strain K12)) (UniProt P0A6Y8). The assay is described as follows: E. coli DnaK SBD ligand binding – biophysical, NMR, chaperone (AID 1033). The conditions noted are these: Purified DnaK SBD.

Activity calls are given as the source filed them. No rule for the calls is given here. Bounds are passed on as bounds.

Chain of Chaperone protein DnaK (Escherichia coli (strain K12)) (P0A6Y8 whole entry, looked up): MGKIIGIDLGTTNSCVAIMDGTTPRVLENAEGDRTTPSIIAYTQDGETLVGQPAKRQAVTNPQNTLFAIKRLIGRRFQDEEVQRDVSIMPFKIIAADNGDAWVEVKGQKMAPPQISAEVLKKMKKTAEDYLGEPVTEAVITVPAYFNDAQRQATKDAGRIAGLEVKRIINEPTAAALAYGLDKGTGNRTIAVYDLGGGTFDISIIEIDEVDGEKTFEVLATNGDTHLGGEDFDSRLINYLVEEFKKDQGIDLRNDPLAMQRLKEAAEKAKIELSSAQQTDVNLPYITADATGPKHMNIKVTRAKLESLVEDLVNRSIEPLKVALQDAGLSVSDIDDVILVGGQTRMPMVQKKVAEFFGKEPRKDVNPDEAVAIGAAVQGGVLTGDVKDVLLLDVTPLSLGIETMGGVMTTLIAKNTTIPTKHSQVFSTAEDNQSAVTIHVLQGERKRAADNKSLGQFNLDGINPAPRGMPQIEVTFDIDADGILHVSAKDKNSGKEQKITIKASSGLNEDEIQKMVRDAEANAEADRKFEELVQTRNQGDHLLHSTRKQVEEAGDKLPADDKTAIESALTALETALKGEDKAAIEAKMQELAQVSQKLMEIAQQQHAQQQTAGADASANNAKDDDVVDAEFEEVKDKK

In the case of `O=C(Nn1c(=S)[nH]c2ccccc2c1=O)c1ccncc1`, the Kd (commonly the free concentration of one partner at which half of the binding sites on the other are occupied at equilibrium, for simple one-to-one binding) is > 4 mM (inactive).

Take `COc1ccccc1NC(=O)c1ccc(C)s1`: the Kd is > 4 mM (inactive). As for `CC(CC(=O)O)n1cccn1` (configuration not stated), the Kd is > 4 mM (inactive).

Turning to `Cc1nnc(C)n1/N=C/c1cccs1`, the Kd was > 4 mM (inactive).

Regarding `COc1cc2c(cc1OC)C1(O)C(=O)c3ccc(O)c(C(=O)O)c3OC1CO2` (configuration not stated), the Kd is > 4 mM (inactive). For `Cc1ccc(C(=O)Nn2cnnc2)s1`, the Kd was > 4 mM (inactive). In the case of `O=C(c1ccco1)N1CCN(c2ccc(Cl)cc2)CC1`, the Kd is > 4 mM (inactive). Consider `c1ccc(-c2nsc(N3CCNCC3)n2)cc1`, for which the Kd was > 4 mM (inactive). The same measure for `CC(=O)Nc1nnc(-c2ccco2)o1`: > 4 mM (inactive); for `CC(=O)Oc1ccc2c(c1)c(C(C)=O)c(C)n2C`: > 4 mM (inactive).

Turning to `CC(C)=CCc1c(O)cc2occ(-c3ccc4c(c3)OCO4)c(=O)c2c1O`, the Kd was > 4 mM (inactive). As to `CC(=O)Nc1cccc(-c2nc3ccccc3c(=O)o2)c1`, the Kd was > 4 mM (inactive). Regarding `CC(=O)Nc1ccc(NC(=O)C2CC2)cc1`, the Kd is > 4 mM (inactive).

On to `NS(=O)(=O)c1ccc2c(c1)OCCO2`, for which the Kd was > 4 mM (inactive). In the case of `NC(=O)CSc1nnc2ccc(-c3ccco3)nn12` it was > 4 mM (inactive); in that of `NC(=O)COc1cccc2cccnc12`, > 4 mM (inactive); in that of `CC1(C)Oc2ccc(N)cc2O1`, > 4 mM (inactive). The same measure for `NC(=O)CN1CCCCCC1=O`: > 4 mM (inactive); for `CC(C)Nc1nc2n(c(=O)n1)CCN2C(C)C`: > 4 mM (inactive). Consider `Cc1nc(NC(=O)c2cccnc2)ccc1Br`, for which the Kd was > 4 mM (inactive).

For the compound `CP(C)(=O)c1cccc(C(=O)O)c1`, the Kd was > 4 mM (inactive). For the compound `CCN1CCN(CCCNc2ncnc3nc[nH]c23)CC1`, the Kd is > 4 mM (inactive).

Turning to `CC(=O)Nc1nc(C)c(C(C)=O)s1`, the Kd was > 4 mM (inactive). `NC(=S)NC1CCS(=O)(=O)C1` (configuration not stated): the Kd is > 4 mM (inactive).

Regarding `OC(CCl)c1ccc(-n2cncn2)cc1` (configuration not stated), the Kd was > 4 mM (inactive). The same measure for `COC(=O)Cn1c2ccccc2c2nc(C)sc21`: > 4 mM (inactive); for `NC(=O)CS(=O)(=O)c1ccc(Cl)cc1`: > 4 mM (inactive); for `O=C(Nc1ccncc1)Nc1ccc(F)cc1F`: > 4 mM (inactive).

For the compound `Cc1nnc(Nc2cccnc2)[nH]c1=O`, the Kd was > 4 mM (inactive). Take `Cn1c(=O)n(CC(=O)Nc2cccnc2)c2ccccc21`: the Kd was > 4 mM (inactive). Consider `COc1ccc(-c2nc(N)n(C(C)=O)n2)cc1`, for which the Kd is > 4 mM (inactive). Consider `O=C1CNC(=O)N1c1cccc(Cl)c1`, for which the Kd was > 4 mM (inactive). Take `O=C1CNc2cc(C(=O)O)ccc2N1`: the Kd was > 4 mM (inactive). Turning to `COc1cc(OC)c2c(=O)c(OC)c(-c3ccc(OC)c(OC)c3)oc2c1`, the Kd is > 4 mM (inactive).

Consider `CNC(=O)c1ccccc1-c1ccccc1`, for which the Kd is > 4 mM (inactive). As to `CC(=O)NC(=S)Nc1ccc(S(N)(=O)=O)cc1`, the Kd is > 4 mM (inactive). Regarding `COc1c(C(C)C)oc2cc3oc(=O)ccc3cc12`, the Kd was > 4 mM (inactive). The same measure for `Cc1c(/C=N/O)cnn1C`: > 4 mM (inactive). The same measure for `Cc1oc(-c2ccccc2)cc1CO`: > 4 mM (inactive). In the case of `O=C(O)c1ccc(-n2cncn2)cc1` it was > 4 mM (inactive).

Consider `O=C(NC1CCS(=O)(=O)C1)C1CCCCC1` (configuration not stated), for which the Kd was > 4 mM (inactive). Take `Cc1oc(-c2ccccc2)nc1CCO`: the Kd is > 4 mM (inactive). With `CCCS(=O)(=O)N1CCN(c2ccccc2F)CC1`, the Kd is > 4 mM (inactive). As to `CC(=O)c1cccc(NC(=O)C=C(C)C)c1`, the Kd was > 4 mM (inactive). Consider `O=C(Nc1ccccn1)C(=O)N1CCCC1`, for which the Kd is > 4 mM (inactive). On to `NC(=O)CSc1ccc(Br)cc1`, for which the Kd was > 4 mM (inactive). For `O=C(Nc1nnc(-c2ccco2)o1)C1=COCCO1`, the Kd was > 4 mM (inactive). Turning to `CCn1cnc(C(=O)NC)c1C(=O)NC`, the Kd was > 4 mM (inactive). For `O=C1CCC(=O)N1c1cccc([N+](=O)[O-])c1`, the Kd was > 4 mM (inactive). `O=C(O)c1cn(-c2ccccc2)nc1-c1ccncc1`: the Kd is > 4 mM (inactive).

In the case of `COc1ccccc1-c1nc(=S)[nH][nH]1`, the Kd was > 4 mM (inactive). In the case of `COc1cc(OC)c(-c2nc3cnccc3n2C)cc1OC` it was > 4 mM (inactive); in that of `O=C1CCCc2c1nc(-c1ccccc1)n2O`, > 4 mM (inactive). For the compound `Cc1cc(C)n(-c2cccc3cccnc23)n1`, the Kd is > 4 mM (inactive). In the case of `C=C[C@H]1CN2CC[C@H]1C[C@@H]2[C@H](O)c1ccnc2ccccc12` it was > 4 mM (inactive); in that of `c1cncc(C2CCCCN2)c1` (configuration not stated), > 4 mM (inactive). For `COc1ccc(-c2coc3c(OC)c(OC)cc(OC)c3c2=O)cc1`, the Kd is > 4 mM (inactive). On to `CC(C)(O)[C@@H]1[C@H]2OC(=O)[C@@H]1[C@]1(O)C[C@H]3O[C@]34C(=O)O[C@H]2[C@]14C`, for which the Kd was > 4 mM (inactive). In the case of `Cc1ccccc1-n1c(-c2cccnc2)n[nH]c1=S` it was > 4 mM (inactive); in that of `CN(C)c1nc(N)nc(Cn2ccnc2)n1`, > 4 mM (inactive). As to `CC(=O)OC1CCC23C(=O)OC45CCC(C6=CC(=O)OC6)C4(C)CCC2C5CCC3(O)C1` (configuration not stated), the Kd is > 4 mM (inactive). `Cc1cc(OC(=O)c2ccco2)c([N+](=O)[O-])c(=O)[nH]1`: the Kd was > 4 mM (inactive). In the case of `CSc1ccc(/C=N/n2c(C)nnc2C)cc1` it was > 4 mM (inactive); in that of `NC(=O)c1ccc(-c2csnn2)cc1`, > 4 mM (inactive).

In the case of `CS(=O)(=O)N1CCN(c2ccccc2F)CC1`, the Kd was > 4 mM (inactive).

For `C=C[C@](C)(O)CCC=C(C)C`, the Kd was > 4 mM (inactive).

Take `Cn1c(=O)n(C)c2nc([N+](=O)[O-])c(Cl)cc21`: the Kd was > 4 mM (inactive). For `CS(=O)(=O)Nc1cc2c3c(c1)CCN3C(=O)CC2`, the Kd was > 4 mM (inactive).

Take `Nc1ncc2[nH]cnc2n1`: the Kd is > 4 mM (inactive). Take `COc1cccc(NC(=O)c2ocnc2C)c1`: the Kd was > 4 mM (inactive). With `Cc1cc(SCC(=O)c2ccccc2)nc(=O)[nH]1`, the Kd was > 4 mM (inactive).

Turning to `COC(=O)CSc1ncnc2c(C)csc12`, the Kd was > 4 mM (inactive). Consider `COC1=CC(=O)C=C(OC)C1=O`, for which the Kd was > 4 mM (inactive). With `CC1C[C@H]2CC(=O)[C@H]3CCCN4CCC[C@H]2[C@]34C1` (some centres not stated), the Kd is > 4 mM (inactive). `Cn1cnc2cc(NC(=O)c3ccco3)ccc21`: the Kd was > 4 mM (inactive).

On to `NCc1c[nH]c2ccccc12`, for which the Kd was > 4 mM (inactive). As for `Cc1cc(O)cc(=O)n1CCCC(=O)O`, the Kd is > 4 mM (inactive).
